Measured values: patent US11208412B2 (DAEGU-GYEONGBUK MEDICAL INNOVATION FOUNDATION, priority 2017, dated 2021)

Target: T1, recombinant LRRK2 kinase (Homo sapiens, UniProt Q5S007)
T1 construct: purchased Signal Chem, Richmond, BC, Canada
Assay: LRRK2 kinase inhibition (Kinase-Glo luminescence)
Format: biochemical
Conditions: IC50 grade; 25 μmol/L ATP, LRRKtide, 30° C. 2 hours; read-out: Enzyme activity LRRK2
Description: Upon completion of the reaction, an equal amount of Kinase-Glo (Promega, Madison, Wis.) solution was added thereto, followed by reaction for 40 minutes. A detection solution was added thereto, followed by further reaction at room temperature for 30 minutes. Then, IC50 of kinase was calculated by measuring the amount of luciferase using a microplate ELISA reader (Bio-Tek).

T1 sequence (Q5S007 whole entry): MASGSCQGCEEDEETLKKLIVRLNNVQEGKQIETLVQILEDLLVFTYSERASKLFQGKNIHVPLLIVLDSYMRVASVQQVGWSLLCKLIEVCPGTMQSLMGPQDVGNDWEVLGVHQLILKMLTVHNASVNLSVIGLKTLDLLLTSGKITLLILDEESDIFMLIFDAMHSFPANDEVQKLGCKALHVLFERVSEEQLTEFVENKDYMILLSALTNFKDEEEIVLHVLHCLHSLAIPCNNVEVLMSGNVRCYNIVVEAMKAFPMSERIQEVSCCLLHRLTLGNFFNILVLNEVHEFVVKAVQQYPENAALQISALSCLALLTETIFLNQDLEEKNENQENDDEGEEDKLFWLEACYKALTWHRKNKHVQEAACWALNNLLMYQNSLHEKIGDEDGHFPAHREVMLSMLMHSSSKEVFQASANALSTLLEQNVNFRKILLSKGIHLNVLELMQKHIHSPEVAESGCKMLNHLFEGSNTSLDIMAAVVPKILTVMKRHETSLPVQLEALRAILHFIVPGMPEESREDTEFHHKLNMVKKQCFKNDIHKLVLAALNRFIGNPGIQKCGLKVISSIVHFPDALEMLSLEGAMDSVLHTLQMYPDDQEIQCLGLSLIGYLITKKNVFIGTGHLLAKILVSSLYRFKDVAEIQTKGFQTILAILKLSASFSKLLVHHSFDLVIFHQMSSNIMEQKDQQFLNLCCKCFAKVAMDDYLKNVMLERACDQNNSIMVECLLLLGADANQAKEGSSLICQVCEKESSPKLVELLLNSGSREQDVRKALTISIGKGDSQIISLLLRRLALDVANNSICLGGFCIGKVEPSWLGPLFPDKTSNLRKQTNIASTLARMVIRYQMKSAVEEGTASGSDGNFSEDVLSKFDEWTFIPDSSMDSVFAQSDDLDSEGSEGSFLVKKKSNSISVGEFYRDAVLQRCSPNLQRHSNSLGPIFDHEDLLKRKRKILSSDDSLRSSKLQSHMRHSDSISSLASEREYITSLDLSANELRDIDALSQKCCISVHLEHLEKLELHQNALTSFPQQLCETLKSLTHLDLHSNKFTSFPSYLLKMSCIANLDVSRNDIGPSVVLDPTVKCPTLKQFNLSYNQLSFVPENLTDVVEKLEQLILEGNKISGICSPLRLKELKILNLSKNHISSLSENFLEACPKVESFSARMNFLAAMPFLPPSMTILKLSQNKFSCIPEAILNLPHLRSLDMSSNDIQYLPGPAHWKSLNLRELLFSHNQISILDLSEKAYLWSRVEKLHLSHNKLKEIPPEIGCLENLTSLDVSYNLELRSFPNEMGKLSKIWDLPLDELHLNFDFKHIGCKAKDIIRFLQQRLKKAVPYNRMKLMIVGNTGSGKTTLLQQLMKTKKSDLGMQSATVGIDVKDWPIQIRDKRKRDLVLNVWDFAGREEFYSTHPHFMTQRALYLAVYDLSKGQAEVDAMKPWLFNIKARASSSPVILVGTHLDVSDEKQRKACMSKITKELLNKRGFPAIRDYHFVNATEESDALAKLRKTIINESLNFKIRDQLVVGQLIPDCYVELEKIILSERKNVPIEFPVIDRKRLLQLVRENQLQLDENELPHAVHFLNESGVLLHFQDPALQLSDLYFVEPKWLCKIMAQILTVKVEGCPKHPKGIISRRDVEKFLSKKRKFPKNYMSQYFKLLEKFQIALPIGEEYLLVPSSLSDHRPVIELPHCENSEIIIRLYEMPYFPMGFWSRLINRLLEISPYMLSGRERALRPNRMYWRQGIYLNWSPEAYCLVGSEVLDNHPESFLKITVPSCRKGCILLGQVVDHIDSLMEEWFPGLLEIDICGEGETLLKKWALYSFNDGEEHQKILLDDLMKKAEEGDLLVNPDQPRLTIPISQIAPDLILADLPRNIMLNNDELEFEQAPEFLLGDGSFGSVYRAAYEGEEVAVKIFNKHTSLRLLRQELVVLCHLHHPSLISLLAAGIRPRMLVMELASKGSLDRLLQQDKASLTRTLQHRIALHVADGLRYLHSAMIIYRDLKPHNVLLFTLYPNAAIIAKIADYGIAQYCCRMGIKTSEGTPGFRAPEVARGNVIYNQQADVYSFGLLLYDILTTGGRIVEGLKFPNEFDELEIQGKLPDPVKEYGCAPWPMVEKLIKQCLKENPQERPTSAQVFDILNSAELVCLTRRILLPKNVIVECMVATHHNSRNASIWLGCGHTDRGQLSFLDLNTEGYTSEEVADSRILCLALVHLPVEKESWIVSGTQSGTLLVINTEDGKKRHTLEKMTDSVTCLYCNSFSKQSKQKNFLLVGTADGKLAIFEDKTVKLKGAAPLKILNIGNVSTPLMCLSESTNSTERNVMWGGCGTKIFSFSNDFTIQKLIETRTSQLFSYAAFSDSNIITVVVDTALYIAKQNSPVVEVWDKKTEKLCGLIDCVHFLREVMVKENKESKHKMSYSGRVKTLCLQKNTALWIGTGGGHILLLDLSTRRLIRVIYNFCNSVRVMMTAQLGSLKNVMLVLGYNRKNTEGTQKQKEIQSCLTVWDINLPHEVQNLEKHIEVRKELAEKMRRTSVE

| SMILES | IC50 [nM] |
| --- | --- |
| CCNc1nc(Nc2cc3c(cc2OC)C(=O)N(C)C3)nc2[nH]cc(C(F)(F)F)c12 [Example 133, 5-((4-(ethylamino)-5-(trifluoromethyl)-7H-pyrrolo[2,3-d]pyrimidine-2-yl)amino)-6-methoxy-2-methylisoindolin-1-one] | < 10 |
| CNc1nc(Nc2cnn(C(C)C)c2C)nc2[nH]cc(C#N)c12 [Example 31, 6-((1-isopropyl-5-methyl-1H-pyrazole-4-yl)amino)-4-(methylamino)-1H-pyrrolo[2,3-b]pyrimidine-3-carbonitrile] | < 10 |
| CCCNc1nc(Nc2ccc(C(=O)N3CCOCC3)cc2OC)nc2[nH]cc(C#N)c12 [Example 12, 2-((2-methoxy-4-(morpholine-4-carbonyl)phenyl)amino)-4-(propylamino)-7H-pyrrolo[2,3-d]pyrimidine-5-carbonitrile] | < 10 |
| COc1cc(C(=O)N2CCO[C@H](C)C2)ccc1Nc1nc(NC2(C)CC2)c2c(C#N)c[nH]c2n1 [Example 42, (R)-2-((2-methoxy-4-(2-methylmorpholine-4-carbonyl)phenyl)amino)-4-((1-methylcyclopropyl)amino)-7H-pyrrolo[2,3-d]pyrimidine-5-carbonitrile] | < 10 |
| CNc1nc(Nc2cc(F)c(C(=O)N3CCN(C)C[C@H]3C)cc2OC)nc2[nH]cc(C#N)c12 [Example 80, (R)-2-((4-(2,4-dimethylpiperazine-1-carbonyl)-5-fluoro-2-methoxyphenyl)amino)-4-(methylamino)-7H-pyrrolo[2,3-d]pyrimidine-5-carbonitrile] | 10 to 100 |
| CNc1nc(Nc2ccc(C(=O)N3CCC(N4CCOCC4)CC3)cc2OC)nc2[nH]cc(C#N)c12 [Example 9, 2-((2-methoxy-4-(4-morpholinylpiperidine-1-carbonyl)phenyl)amino)-4-(methylamino)-7H-pyrrolo[2,3-d]pyrimidine-5-carbonitrile] | < 10 |
| CNc1nc(Nc2cnn(C)c2C)nc2[nH]cc(C#N)c12 [Example 29, 6-((1,5-dimethyl-1H-pyrazole-4-yl)amino)-4-(methylamino)-1H-pyrrolo[2,3-b]pyrimidine-3-carbonitrile] | 10 to 100 |
| CCNc1nc(Nc2ccc(C(=O)N3CCO[C@H](C)C3)cc2OC)nc2[nH]cc(C#N)c12 [Example 25, (R)-4-(ethylamino)-2-((2-methoxy-4-(2-methylmorpholine-4-carbonyl)phenyl)amino)-7H-pyrrolo[2,3-d]pyrimidine-5-carbonitrile] | < 10 |
| CNc1nc(Nc2ccc(C(=O)N3CCN(C4COC4)CC3)cc2OC)nc2[nH]cc(C#N)c12 [Example 57] | < 10 |
| COc1cc(C(=O)N2C[C@@H](C)O[C@@H](C)C2)ccc1Nc1nc(OC2(C)CC2)c2c(C#N)c[nH]c2n1 [Example 100, 2-((4-((2R,6S)-2,6-dimethylmorpholine-4-carbonyl)-2-methoxyphenyl)amino)-4-(1-methylcyclopropoxy)-7H-pyrrolo[2,3-d]pyrimidine-5-carbonitrile] | 10 to 100 |
| CCNc1nc(Nc2cnn([C@H]3CCN(C4COC4)C[C@@H]3F)c2)nc2[nH]cc(C#N)c12 [Example 53] | < 10 |
| COc1cc(C(=O)N2CCOCC2)c(F)cc1Nc1nc(OC2(C)CC2)c2c(C#N)c[nH]c2n1 [Example 97, 2-((5-fluoro-2-methoxy-4-(morpholine-4-carbonyl)phenyl)amino)-4-(1-methylcyclopropoxy)-7H-pyrrolo[2,3-d]pyrimidine-5-carbonitrile] | < 10 |
| Cc1nn(C(C)(C)C#N)cc1Nc1nc(NC2(C)CC2)c2c(C#N)c[nH]c2n1 [Example 49, 2-((1-(2-cyanopropane-2-yl)-3-methyl-1H-pyrazole-4-yl)amino)-4-((1-methylcyclopropyl)amino)-7H-pyrrolo[2,3-d]pyrimidine-5-carbonitrile] | < 10 |
| Cc1nn(C)cc1Nc1nc(NC2(C)CC2)c2c(C#N)c[nH]c2n1 [Example 40, 2-((1,3-dimethyl-1H-pyrazole-4-yl)amino)-4-((1-methylcyclopropyl)amino)-7H-pyrrolo[2,3-d]pyrimidine-5-carbonitrile] | < 10 |
